The record followed here is US6355634B1, “Aromatic compounds” (Bayer Aktiengesellschaft, priority 1990, dated 2002).

What all share (type): in vivo
One assay deals with Cercospora arachidicola. Description: Action against Cercospora arachidicola on peanut plants (curative action). The following applies: Mycosphaerella arachidis, 288 h, 160 ppm spray, peanut cv. Tamnut, evaluated 12 days after treatment, read-out: action (leaf area infected with Cercospora arachidicola as a percentage compared with the infected control). How it is done: Action Against Cercospora arachidicola on Peanut Plants (Curative Action)
Two peanut plants cv. “Tamnut” in the 4-leaf stage are sprayed with a conidia suspension of Cercospora arachidicola (approx. 200,000 conidia/ml) and subsequently incubated at 25-26° C. and under dew-point conditions. After two days, the plants are sprayed thoroughly from all sides with a spray mixture prepared with a wettable powder of the active substance (with 160 ppm of active ingredient). The treated plants are subsequently incubated in a controlled-environment cabinet under the following conditions: 25-27° C. and 80% atmospheric humidity during the day, 20° C. and dew-point conditions during the night; the photoperiod in each case is 16 hours. 12 days after the treatment, the test is evaluated by determining the leaf area infected with Cercospora arachidicola as a percentage compared with the infected control.

The subject of a further assay is Erysiphe graminis. Description: Erysiphe graminis (protective action) on wheat seedlings. Conditions: Blumeria graminis, 168 h, 160 ppm spray, wheat cv. Lita, evaluated 7 days after infection, read-out: action (leaf area covered in Erysiphe graminis as a percentage compared with the infected control). How it is done: Erysiphe graminis (Protective Action)
30-40 wheat seedlings cv. “Lita” in the 1-leaf stage (distributed to two pots of ø7 cm) are sprayed thoroughly with a spray mixture prepared with a wettable powder of the active substance (with 160 ppm of active ingredient) and then cultured further in the greenhouse. One day after the treatment, the plants are dusted with conidia of Erysiphe graminis. The test is evaluated 7 days after the infection by determining the size of the leaf area covered in Erysiphe graminis as a percentage compared with the infected control.
Untreated, but infected control plants show a level of infection with Erysiphe of 100%.

The test system of a further assay is Venturia inaequalis. Kind of assay: Venturia inaequalis (curative action) on apple seedlings. The following applies: 50 ppm spray, apple cv. Golden Delicious, evaluated 9-10 days after treatment, read-out: action (leaf area covered in Venturia inaequalis as a percentage compared with the infected control). How it is done:
Venturia inaequalis (Curative Action)
Two apple seedlings cv. “Golden Delicious” are sprayed with a conidia suspension of Venturia inaequalis and subsequently incubated at 18° C. and under dew-point conditions. After 24 hours, the plants are sprayed thoroughly from all sides with a spray mixture prepared with a wettable powder of the active substance (with 50 ppm of active ingredient). The treated apple seedlings are subsequently cultured further in the greenhouse. 9-10 days after the treatment, the test is evaluated by determining the leaf area covered in Venturia inaequalis as a percentage compared with the infected control.

The test system of another assay is Alternaria brassicae. Kind of assay: Alternaria brassicae (protective action) on cabbage seedlings. The following applies: 50 ppm spray, cabbage cv. Vorbote, evaluated 2-5 days after infection, read-out: action (leaf area infected with Alternaria brassicae as a percentage compared with the infected, untreated control). The method, then:
Alternaria brassicae (Protective Action)
4 cabbage seedlings, cv. “Vorbote”, in the 6-leaf stage, distributed to 2 pots, are sprayed thoroughly with a spray mixture prepared with a wettable powder of the active substance (with 50 ppm of active ingredient) and subsequently cultured further in a controlled-environment cabinet at 19° C. and with 16 hours illumination per day. Two days after the treatment, the plants are infected by spraying with an aqueous conidia suspension (approx. 30,000 conidia/ml). The cabbage plants are then incubated at 24-26° C., under dew-point conditions and with a photoperiod of 16 hours. The test is evaluated 2-5 days after the infection by determining the leaf area infected with Alternaria brassicae as a percentage compared with the infected, untreated control.

The test system of the next assay is Plasmopara viticola. Description: Plasmopara viticola (protective action) on grapevine seedlings. Conditions: 144 h, 160 ppm spray, grapevine cv. Riesling x Sylvaner, day 6 after infection, read-out: action (leaf area infected with Plasmopara viticola as a percentage compared with the infected, untreated control). The method, then:
Plasmopara viticola (Protective Action)
2 grapevine seedlings cv. Riesling×Sylvaner, each in the 4-5 leaf stage, are sprayed thoroughly from all sides with a spray mixture prepared with a wettable powder of the active substance (with 160 ppm of active ingredient) and subsequently cultured further in a controlled-environment cabinet at 17° C., 70-80% relative atmospheric humidity and with a photoperiod of 16 hours. After 6 days, the test plants are infected by spraying the undersides of the leaves with zoosporangia of Plasmopara viticola, suspended in distilled water (approx. 300,000 sporangia/ml). The grapevine plants are then incubated as follows: 1 day at 22° C. and under dew-point conditions in the dark and subsequently 4 days in the greenhouse. To induce fructification of Plasmopara viticola, the grapevines are transferred to a controlled-environment cabinet with dew-point conditions at 22° C. on day 5 after the infection.
The tests are carried out in each case on day 6 after the infection by determining the leaf area infected with Plasmopara viticola as a percentage compared with the infected, untreated control.

Some results are limits rather than exact numbers.

With `CO/N=C(\C(=O)OC)c1ccccc1CON=C(C)c1ccc(Cl)c(Cl)c1` [Compound 13], the pest or weed control at 160 ppm in the assay on Cercospora arachidicola and in the assay with Erysiphe graminis was greater than 75% throughout. Also, the pest or weed control at 50 ppm in the assay with Venturia inaequalis and in the assay on Alternaria brassicae was greater than 75% throughout.

On to `CO/N=C(\C(=O)OC)c1ccccc1CON=C(C)c1cccs1` [Compound 14], for which the pest or weed control at 160 ppm in the assay on Cercospora arachidicola was greater than 75%. For the same compound, the pest or weed control at 50 ppm in the assay on Venturia inaequalis and in the assay on Alternaria brassicae was greater than 75% in each case.

Turning to `CCCC(=NOCc1ccccc1/C(=N/OC)C(=O)OC)c1ccccc1` [Compound 18], in the assay on Erysiphe graminis, the pest or weed control at 160 ppm was greater than 75%.

As to `CO/N=C(\C(=O)OC)c1ccccc1CON=C(C)c1ccc(OC)cc1` [Compound 19], the pest or weed control at 160 ppm in the assay with Cercospora arachidicola is greater than 75%. The pest or weed control at 50 ppm in the assay with Venturia inaequalis was greater than 75%.

Take `CO/N=C(\C(=O)OC)c1ccccc1CON=C(C)c1cc(OC)c(OC)c(OC)c1` [Compound 20]: the pest or weed control at 50 ppm in the assay with Venturia inaequalis and in the assay on Alternaria brassicae was greater than 75% in each case.

Regarding `CO/N=C(\C(=O)OC)c1ccccc1CON=C(C)C(C)=CC=C(C)CCC=C(C)C` [Compound 23], the pest or weed control at 160 ppm with Erysiphe graminis is greater than 75%. Besides, the pest or weed control at 50 ppm in the assay with Alternaria brassicae was greater than 75%.

For `CO/N=C(\C(=O)OC)c1ccccc1CON=C(C)c1ccc([N+](=O)[O-])cc1` [Compound 25], the pest or weed control at 160 ppm with Cercospora arachidicola and with Erysiphe graminis was greater than 75% throughout. Moreover, the pest or weed control at 50 ppm in the assay with Alternaria brassicae was greater than 75%.

With `CO/N=C(\C(=O)OC)c1ccccc1CON=C(C)c1cccc([N+](=O)[O-])c1` [Compound 26], the pest or weed control at 160 ppm with Cercospora arachidicola is greater than 75%. In the assay with Alternaria brassicae, the pest or weed control at 50 ppm is greater than 75%.

As for `CO/N=C(\C(=O)OC)c1ccccc1CON=C(c1ccccc1)C(F)(F)F` [Compound 27], the pest or weed control at 160 ppm in the assay on Erysiphe graminis is greater than 75%.

As to `CO/N=C(\C(=O)OC)c1ccccc1CON=C(C)C(C)Oc1ccccc1` (stereo not shown) [Compound 37], the pest or weed control at 160 ppm with Erysiphe graminis is greater than 75%.

Consider `CO/N=C(\C(=O)OC)c1ccccc1CON=C(c1cccc(C(F)(F)F)c1)C(F)(F)F` [Compound 39], for which the pest or weed control at 160 ppm with Erysiphe graminis is greater than 75%.

Consider `CO/N=C(\C(=O)OC)c1ccccc1CON=C(C)c1cccc(F)c1` [Compound 40], for which the pest or weed control at 160 ppm in the assay on Cercospora arachidicola and with Erysiphe graminis was greater than 75% each time.

With `CO/N=C(\C(=O)OC)c1ccccc1CON=C(C)c1ccc(OC)c(CSC)c1` [Compound 49], in the assay on Cercospora arachidicola, the pest or weed control at 160 ppm is greater than 75%. Moreover, the pest or weed control at 50 ppm with Venturia inaequalis was greater than 75%.

Take `CO/N=C(\C(=O)OC)c1ccccc1CON=C(C)Cc1ccc2c(c1)OCO2` [Compound 54]: the pest or weed control at 50 ppm with Venturia inaequalis and in the assay with Alternaria brassicae was greater than 75% each time.

Take `CO/N=C(\C(=O)OC)c1ccccc1CON=C(C)C(=O)c1ccc2c(c1)OCO2` [Compound 64]: the pest or weed control at 50 ppm in the assay with Venturia inaequalis is greater than 75%.

Turning to `C=CCOc1cccc(C(C)=NOCc2ccccc2/C(=N/OC)C(=O)OC)c1` [Compound 66], the pest or weed control at 160 ppm in the assay on Cercospora arachidicola was greater than 75%. Besides, the pest or weed control at 50 ppm in the assay with Venturia inaequalis is greater than 75%.

For the compound `C#CCOc1cccc(C(C)=NOCc2ccccc2/C(=N/OC)C(=O)OC)c1` [Compound 67], in the assay with Alternaria brassicae, the pest or weed control at 50 ppm was greater than 75%.

On to `CO/N=C(\C(=O)OC)c1ccccc1CON=C(C)c1cccc(OCC2CC2)c1` [Compound 68], for which the pest or weed control at 160 ppm in the assay on Cercospora arachidicola was greater than 75%.

For the compound `CO/N=C(\C(=O)OC)c1ccccc1CON=C(C)c1cccc(C#N)c1` [Compound 70], the pest or weed control at 160 ppm in the assay on Erysiphe graminis was greater than 75%.

Consider `CO/N=C(\C(=O)OC)c1ccccc1CON=C(C)c1cccc(SC#N)c1` [Compound 71], for which the pest or weed control at 160 ppm in the assay on Cercospora arachidicola was greater than 75%.

Regarding `CO/N=C(\C(=O)OC)c1ccccc1CON=C(C)c1ccc(OC)c([N+](=O)[O-])c1` [Compound 82], in the assay with Venturia inaequalis, the pest or weed control at 50 ppm is greater than 75%. Also, the pest or weed control at 160 ppm in the assay with Plasmopara viticola was greater than 75%.

As to `COCc1cc(C(C)=NOCc2ccccc2/C(=N/OC)C(=O)OC)ccc1OC` [Compound 83], the pest or weed control at 160 ppm in the assay on Cercospora arachidicola was greater than 75%. Moreover, the pest or weed control at 50 ppm in the assay with Venturia inaequalis was greater than 75%.

For `CCOc1cc(C(C)=NOCc2ccccc2/C(=N/OC)C(=O)OC)ccc1OC` [Compound 85], the pest or weed control at 50 ppm in the assay with Venturia inaequalis was greater than 75%.

Regarding `CO/N=C(\C(=O)OC)c1ccccc1CON=C(c1ccc(F)cc1)C1CC1` [Compound 89], the pest or weed control at 160 ppm in the assay on Erysiphe graminis was greater than 75%.

On to `CO/N=C(\C(=O)OC)c1ccccc1CON=C(C)c1cccc(OCC#N)c1` [Compound 92], for which, in the assay with Alternaria brassicae, the pest or weed control at 50 ppm was greater than 75%.

With `CO/N=C(\C(=O)OC)c1ccccc1CON=CC(=O)c1cccs1` [Compound 105], in the assay with Erysiphe graminis, the pest or weed control at 160 ppm was greater than 75%. Besides, the pest or weed control at 50 ppm with Venturia inaequalis and in the assay with Alternaria brassicae was greater than 75% each time.

Turning to `CO/N=C(\C(=O)OC)c1ccccc1CON=C(C)c1ccc(OC(F)(F)C(F)(F)F)cc1` [Compound 106], in the assay with Venturia inaequalis, the pest or weed control at 50 ppm was greater than 75%.

Regarding `CO/N=C(\C(=O)OC)c1ccccc1CON=C(C)c1ccc2cc(OC)ccc2c1` [Compound 119], the pest or weed control at 160 ppm in the assay on Erysiphe graminis is greater than 75%.

As for `CO/N=C(\C(=O)OC)c1ccccc1CON=C(SC)c1ccccc1` [Compound 124], the pest or weed control at 50 ppm in the assay on Venturia inaequalis and with Alternaria brassicae was greater than 75% each time.

Regarding `CO/N=C(\C(=O)OC)c1ccccc1CON=C(SC)c1ccc(Cl)cc1` [Compound 125], the pest or weed control at 160 ppm with Plasmopara viticola is greater than 75%.

`CO/N=C(\C(=O)OC)c1ccccc1CON=C(SC)c1cccc(C(F)(F)F)c1` [Compound 126]: the pest or weed control at 160 ppm in the assay on Erysiphe graminis was greater than 75%.

`CO/N=C(\C(=O)OC)c1ccccc1CON=C(OC)c1ccc(Cl)cc1` [Compound 127]: the pest or weed control at 160 ppm in the assay on Erysiphe graminis was greater than 75%.

`CO/N=C(\C(=O)OC)c1ccccc1CON=C(C)C(=O)c1cccc([N+](=O)[O-])c1` [Compound 130]: in the assay on Cercospora arachidicola, the pest or weed control at 160 ppm is greater than 75%. Besides, the pest or weed control at 50 ppm with Alternaria brassicae was greater than 75%.

Take `CO/N=C(\C(=O)OC)c1ccccc1CON=C(C)c1ccccc1` [Compound 134]: the pest or weed control at 50 ppm in the assay with Venturia inaequalis was greater than 75%.

For the compound `CO/N=C(\C(=O)OC)c1ccccc1CON=C(C)c1cc(Cl)cc(Cl)c1` [Compound 136], in the assay with Alternaria brassicae, the pest or weed control at 50 ppm was greater than 75%.

Regarding `CO/N=C(\C(=O)OC)c1ccccc1CON=C(C)c1cc(C)ccc1F` [Compound 137], the pest or weed control at 160 ppm in the assay on Erysiphe graminis was greater than 75%.

In the case of `CO/N=C(\C(=O)OC)c1ccccc1CON=C(c1cccc(Cl)c1)C(F)(F)F` [Compound 141], the pest or weed control at 160 ppm in the assay on Erysiphe graminis is greater than 75%.

For `CO/N=C(\C(=O)OC)c1ccccc1CON=C(c1ccc(Cl)cc1)C(F)(F)F` [Compound 142], the pest or weed control at 50 ppm in the assay with Venturia inaequalis was greater than 75%.

For `CO/N=C(\C(=O)OC)c1ccccc1CON=C(c1ccc2ccccc2c1)C(F)(F)F` [Compound 143], in the assay with Alternaria brassicae, the pest or weed control at 50 ppm is greater than 75%.

Regarding `CO/N=C(\C(=O)OC)c1ccccc1CON=C(c1cccc(Cl)c1)C1CC1` [Compound 145], in the assay with Cercospora arachidicola, the pest or weed control at 160 ppm was greater than 75%.

Turning to `CO/N=C(\C(=O)OC)c1ccccc1CON=C(c1cccc(Br)c1)C1CC1` [Compound 147], in the assay with Venturia inaequalis, the pest or weed control at 50 ppm is greater than 75%. In addition, the pest or weed control at 160 ppm in the assay with Plasmopara viticola is greater than 75%.

Consider `CO/N=C(\C(=O)OC)c1ccccc1CON=C(c1ccc(Oc2ccccc2)cc1)C1CC1` [Compound 149], for which the pest or weed control at 160 ppm in the assay on Erysiphe graminis was greater than 75%.
